Results taken from patent US9073821B2, “Hydroxamic acid derivative” (priority 2010, dated 2015).

The molecules below were run against Pseudomonas aeruginosa LpxC enzyme (Pseudomonas aeruginosa (strain ATCC 15692 / DSM 22644 / CIP 104116 / JCM 14847 / LMG 12228 / 1C / PRS 101 / PAO1), UniProt P47205) (assay: biochemical). Conditions: class symbols A/B/C by IC50; Table 3; read-out: Enzyme inhibitory activity (inhibitory activity on Pseudomonas aeruginosa LpxC enzyme).
Assay type: biochemical

Structure (SMILES) | IC50
CNC(=O)C(C(=O)NO)N(C)C(=O)c1ccc(C#CC2=CCCCC2)cc1 (stereo not shown) [Compound 523, 2-[{[4-(cyclohex-1-en-1-ylethynyl)phenyl]carbonyl}(methyl)amino]-N-hydroxy-N′-methylpropanediamide] | 10 to 100 nM

Same assay, conditions: inhibitory activity on Pseudomonas aeruginosa LpxC enzyme, class symbols A/B/C; read-out: Enzyme inhibitory activity

Structure (SMILES) | IC50
O=C(NC(C(=O)NO)C(=O)NCC1CNCCO1)c1ccc(-c2ccc(OCCO)cc2)cc1 (stereo not shown) [Compound 162, N-hydroxy-2-({[4′-(2-hydroxyethoxy)biphenyl-4-yl]carbonyl}amino)-N′-(morpholin-2-ylmethyl)propanediamide] | 10 to 100 nM
CN(C(=O)c1ccc(-c2ccccc2)cc1)C(C(=O)NO)C(=O)NCCc1ccccc1 (stereo not shown) [Compound 76, 2-[(biphenyl-4-ylcarbonyl)(methyl)amino]-N-hydroxy-N′-(2-phenylethyl)propanediamide] | > 100 nM
CNC(=O)C(C(=O)NO)N(C)C(=O)c1ccc(-c2ccc(C(=O)N(C)C)cc2)cc1 (stereo not shown) [Compound 252, N-[1-(hydroxyamino)-3-(methylamino)-1,3-dioxopropan-2-yl]-N,N′,N′-trimethylbiphenyl-4,4′-dicarboxamide] | 10 to 100 nM
CNC(=O)C(C(=O)NO)N(C)C(=O)c1ccc(-n2cccc2)cc1 (stereo not shown) [Compound 307, N-hydroxy-N′-methyl-2-(methyl {[4-(1H-pyrrol-1-yl)phenyl]carbonyl}amino)propanediamide] | > 100 nM
CNC(=O)C(C(=O)NO)N(C)C(=O)c1ccc(C#Cc2ccn(C)n2)cc1 (stereo not shown) [Compound 418, N-hydroxy-N′-methyl-2-[methyl({4-[(1-methyl-1H-pyrazol-3-yl)ethynyl]phenyl}carbonyl)amino]propanediamide] | > 100 nM
CNC(=O)C(C(=O)NO)N(C)C(=O)c1ccc(-c2ccc(NCCCNc3ccccc3)cc2)cc1 (stereo not shown) [Compound 100, N-hydroxy-N′-methyl-2-{methyl[(4′-{[3-(phenylamino)propyl]amino}biphenyl-4-yl)carbonyl]amino}propanediamide] | < 10 nM
NC(=O)C(NC(=O)c1ccc(-c2ccccc2)cc1)C(=O)NO (stereo not shown) [Compound 111, 2-[(biphenyl-4-ylcarbonyl)amino]-N-hydroxypropanediamide] | 10 to 100 nM
CNC(=O)C(C(=O)NO)N(CC(F)F)C(=O)c1ccc(-c2ccc(OCCCN3CCOCC3)cc2)cc1 (stereo not shown) [Compound 225, 2-[(2,2-difluoroethyl)({4′-[3-(morpholin-4-yl)propoxy]biphenyl-4-yl}carbonyl)amino]-N-hydroxy-N′-methylpropanediamide] | < 10 nM
CNC(=O)C(C(=O)NO)N(C)C(=O)c1ccc(-c2ccc(N(C)C)c(F)c2)cc1 (stereo not shown) [Compound 54, 2-[{[4′-(dimethylamino)-3′-fluorobiphenyl-4-yl]carbonyl}(methyl)amino]-N-hydroxy-N′-methylpropanediamide] | 10 to 100 nM
CNC(=O)C(C(=O)NO)N(C)C(=O)c1ccc(-c2ccc(OC(F)(F)C(F)F)cc2)cc1 (stereo not shown) [Compound 83, N-hydroxy-N′-methyl-2-(methyl {[4′-(1,1,2,2-tetrafluoroethoxy)biphenyl-4-yl]carbonyl}amino)propanediamide] | < 10 nM
CNC(=O)C(C(=O)NO)N(C)C(=O)c1ccc(-c2ccc(CCC(=O)N(C)C)cc2)cc1 (stereo not shown) [Compound 266, 2-[({4′-[3-(dimethylamino)-3-oxopropyl]biphenyl-4-yl}carbonyl)(methyl)amino]-N-hydroxy-N′-methylpropanediamide] | 10 to 100 nM
CNC(=O)C(C(=O)NO)N(C)C(=O)c1ccc(-c2ccc(NCCCOC)cc2)cc1 (stereo not shown) [Compound 228, N-hydroxy-2-[({4′-[(3-methoxypropyl)amino]biphenyl-4-yl}carbonyl)(methyl)amino]-N′-methylpropanediamide] | < 10 nM
CNC(=O)C(NC(=O)c1ccc(-c2ccc(OCCCN3CCCOCC3)cc2)cc1)C(=O)NO (stereo not shown) [Compound 112, N-hydroxy-N′-methyl-2-[({4′-[3-(1,4-oxazepan-4-yl)propoxy]biphenyl-4-yl}carbonyl)amino]propanediamide] | < 10 nM
Cn1cc(CNC(=O)C(NC(=O)c2ccc(-c3ccc(OCCO)cc3)cc2)C(=O)NO)cn1 (stereo not shown) [Compound 147, N-hydroxy-2-({[4′-(2-hydroxyethoxy)biphenyl-4-yl]carbonyl}amino)-N′-[(1-methyl-1H-pyrazol-4-yl)methyl]propanediamide] | < 10 nM
O=C(NC(C(=O)NO)C(=O)NCC1COc2ccccc2O1)c1ccc(-c2ccc(OCCO)cc2)cc1 (stereo not shown) [Compound 149, N-(2,3-dihydro-1,4-benzodioxin-2-ylmethyl)-N′-hydroxy-2-({[4′-(2-hydroxyethoxy)biphenyl-4-yl]carbonyl}amino)propanediamide] | < 10 nM
CNC(=O)C(C(=O)NO)N(C)C(=O)c1ccc(-c2ccc(OCCCN(C)C)cc2)cc1 (stereo not shown) [Compound 274, 2-[({4′-[3-(dimethylamino)propoxy]biphenyl-4-yl}carbonyl)(methyl)amino]-N-hydroxy-N′-methylpropanediamide] | 10 to 100 nM
Cn1cnc(CNC(=O)C(NC(=O)c2ccc(-c3ccc(OCCO)cc3)cc2)C(=O)NO)c1 (stereo not shown) [Compound 158, N-hydroxy-2-({[4′-(2-hydroxyethoxy)biphenyl-4-yl]carbonyl}amino)-N′-[(1-methyl-1H-imidazol-4-yl)methyl]propanediamide] | < 10 nM
CNC(=O)C(C(=O)NO)N(C)C(=O)c1ccc(-c2ccc(N)cc2)cc1 (stereo not shown) [Compound 284, 2-{[(4′-aminobiphenyl-4-yl)carbonyl](methyl)amino}-N-hydroxy-N′-methylpropanediamide] | 10 to 100 nM
COCCNC(=O)C(NC(=O)c1ccc(-c2ccc(OCCO)cc2)cc1)C(=O)NO (stereo not shown) [Compound 131, N-hydroxy-2-({[4′-(2-hydroxyethoxy)biphenyl-4-yl]carbonyl}amino)-N′-(2-methoxyethyl)propanediamide] | 10 to 100 nM
CNC(=O)C(C(=O)NO)N(C)C(=O)c1ccc(-c2ccc(OCc3ccc(-c4nnn[nH]4)cc3)cc2)cc1 (stereo not shown) [Compound 93, N-hydroxy-N′-methyl-2-{methyl[(4′-{[4-(1H-tetrazol-5-yl)benzyl]oxy}biphenyl-4-yl)carbonyl]amino}propanediamide] | 10 to 100 nM
CNC(=O)C(C(=O)NO)N(C)C(=O)c1ccc(-c2ccc(C3OCCO3)cc2)cc1 (stereo not shown) [Compound 187, 2-[{[4′-(1,3-dioxolan-2-yl)biphenyl-4-yl]carbonyl}(methyl)amino]-N-hydroxy-N′-methylpropanediamide] | < 10 nM
CNC(=O)C(C(=O)NO)N(C)C(=O)c1ccc(C#Cc2ccc(CN3CCN(C)CC3)cc2)cc1 (stereo not shown) [Compound 304, N-hydroxy-N′-methyl-2-(methyl {[4-({4-[(4-methylpiperazin-1-yl)methyl]phenyl}ethynyl)phenyl]carbonyl}amino)propanediamide] | < 10 nM
CNC(=O)C(C(=O)NO)N(C)C(=O)c1ccc(-c2ccc(NCc3cccnc3)cc2)cc1 (stereo not shown) [Compound 65, N-hydroxy-N′-methyl-2-[methyl({4′-[(pyridin-3-ylmethyl)amino]biphenyl-4-yl}carbonyl)amino]propanediamide] | < 10 nM
CNC(=O)C(C(=O)NO)N(C)C(=O)c1ccc(-c2c(F)cccc2F)cc1 (stereo not shown) [Compound 233, 2-{[(2′,6′-difluorobiphenyl-4-yl)carbonyl](methyl)amino}-N-hydroxy-N′-methylpropanediamide] | 10 to 100 nM
